Results: patent US20140357713A1, “ANTIMICROBIAL COMPOUNDS AND METHODS OF USE” (NexMed Holdings, Inc., priority 2012, published 2014)
Structures can show the parent of a compound that is named as a salt. Where two headings read alike, the source gives them in different places.

Assays:
pH (Table 1) = format: physicochemical
[1] = Solubility (Sol., Table 1); format: physicochemical
[2] = system: Candida albicans (ATCC 90029); experiment: Minimum inhibitory concentration (MIC) assay, Example 33; format: cell-based; details: Candida albicans
Description: (§1) Thirty compounds were tested for antimicrobial activity using standard procedures and standard strains for both the minimum inhibitory concentration (MIC) assay and a time kill study. Both the MIC assay and the time kill study were performed according to Clinical and Laboratory Standards Institute (CLSI) guidelines. Three bacteria strains, Escherichia coli (ATCC 25922), Pseudomonas aeruginosa (ATCC 27853), Staphulococcus aureus (ATCC 29213), and two fungus strains, Candida albicans (ATCC 90029) and Aspergillus niger (CMCC 98003), were used in the experiments.
(§2) Preparation of cultures. Before the experiment, two days for the bacteria strains and five days for fungus strains, an aliquot was removed from the cultures frozen at −80° C. Medium was added to the surface of an appropriate agar plate and streaked with the aliquot. The plate was incubated for 20 to 24 hrs at 35±2° C. for bacteria or for 5 days at 26-30° C. in incubator for fungus. From the resulting growth on each plate, one isolated colony of similar morphology was selected and re-streaked onto a fresh agar plate using a sterile disposable loop. The plate was incubated 20 to 24 hrs at 35±2° C. or for 5 days at 26-30° C. in an incubator.
(§3) Preparation of Assay Plates with Medium and Drugs. On the day of the assay, CAMHB medium or RPMI 1640 medium was removed from 4′C storage and allowed to reach room temperature. Ninety microliters (μL) of room temperature CAMHB or RPMI 1640 (supplemented with the appropriate concentration of DMSO, if required) were added to rows B-G of each 96-well microtiter plate. Using a pipette, duplicate 180 μL aliquots of each drug stock solution were added to column 1 (e.g. A1 and B1 or C1 and D1 or E1 and F1 or G1 and H1). Using a multichannel pipette or the Provision 2000 liquid handler, serial 2-fold dilutions (90 μL) were performed in each row across the plate to row G. Eighty μL of compounds dilutions were transferred to a 96-deep well plate. Medium, 1,520 μL of CAMHB or RPMI 1640, was added to each well. The contents of the wells were mixed thoroughly. A 50 μL aliquot of each of the resulting mixtures was transferred to a 96-well assay plate.
For Candida albicans, a sterile inoculating loop was used to transfer growth from an agar plate culture into a tube with RPMI1640 medium. This inoculum was adjusted so that its density at 530 nm was in the ranges from 0.08 to 0.13. The resulting suspension was diluted 1:50 and further diluted 1:20 with the medium to obtain two times test inoculums.
(§4) For Aspergillus niger, sporulating colonies were covered with RPMI 1640, and a suspension was prepared by gently probing the colonies with the tip of a transfer pipette. The suspension was transferred to a sterile tube and mixed with a vortex mixer for 15 seconds. The densities at 530 nm were adjusted to 0.09-0.13 for each sample. The resulting suspension was diluted 1:50 with the medium to obtain two times test inoculums. Fifty μL/well of this inoculum suspension was added to wells of drug-containing plates (1:2 dilution). Plates were incubated at 35° C. for the appropriate times. The MIC was read and recorded according to CLSI guidelines.
(§5) The MIC values for thirty compounds against Escherichia coli, Pseudomonas aeruginosa, Staphulococcus aureus, Candida albicans, and Aspergillus niger were recorded and are presented in Table 3 and Table 4.

[3] = system: Escherichia coli (ATCC 25922); experiment: as above; format: cell-based; details: Escherichia coli
Description: as §1, §2, §3
(§6) For bacteria, a sterile inoculating loop was used to transfer growth from an agar plate culture into about 5 mL of test medium. Using a turbidity meter, this inoculum was adjusted so that its density (600 nm) was equivalent to a 0.5 McFarland barium sulfate standard (0.08-0.13). The resulting suspension was diluted 1:100 into medium to obtain two times test inoculums.
as §4, §5

[4] = system: Pseudomonas aeruginosa (ATCC 27853); experiment: as above; format: cell-based; details: Pseudomonas aeruginosa
Description: as §1, §2, §3, §6, §4, §5

[5] = system: Aspergillus niger (CMCC 98003); experiment: as above; format: cell-based; details: for MIC: Aspergillus niger; for MIC Aspergillus niger: n = 2
Description: as §1, §2, §3, §4, §5

[6] = system: Staphulococcus aureus (ATCC 29213); experiment: as above; format: cell-based, Staphylococcus aureus; details: Staphylococcus aureus
Description: as §1, §2, §3, §6, §4, §5

[7] = system: Staphylococcus aureus (ATCC 29213); experiment: Time kill study, Example 33 (0 to 5 min); format: cell-based; details: 1×MIC
Description: as §1
(§7) The viable counts in Log10 CFU/mL at each time point were recorded.
(§8) Time kill studies. Strain suspensions were prepared as described above for the MIC test, and strain suspensions and compound solutions were mixed in the same volume. Samples were removed at specified times including 0 min, 30 sec, 1 min and 5 mins, were diluted in the test medium and streaked on agar. Colonies were counted after 24 to 48 hrs of incubation. […]

[8] = system: Escherichia coli (ATCC 25922); experiment: Time kill study, Example 33 (0 to 5 min); format: cell-based; details: 1×MIC
Description: as §1, §7, §8

[9] = system: Pseudomonas aeruginosa (ATCC 27853); experiment: Time kill study, Example 33 (0 to 5 min); format: cell-based; details: 1×MIC
Description: as §1, §7, §8

[10] = ATCC90029, read-out: MIC Candida albicans, n = 1
[11] = ATCC90029, read-out: MIC Candida albicans, n = 2
[12] = ATCC25922, Table 19 summary of Example 33 and Example 35
[13] = ATCC25922, read-out: MIC E. coli, n = 1
[14] = ATCC25922, read-out: MIC E. coli, n = 2
[15] = ATCC27853, read-out: MIC P. aeruginosa, n = 1
[16] = ATCC27853, read-out: MIC P. aeruginosa, n = 2
[17] = CMCC98003, read-out: MIC Aspergillus niger
[18] = ATCC29213, read-out: MIC S. aureus, n = 1
[19] = ATCC29213, read-out: MIC S. aureus, n = 2

CCCCCCCCCCCCOC(=O)C(C(C)O)N(C)C (stereo not drawn) [Nex-51, Dodecyl 2-(dimethylamino)-3-hydroxybutanoate hydrochloride]
pH (pH (Table 1)): 0.56
Sol. [1]: 98%

CCCCCCCCCCCCOC(=O)C(C(C)C)N(C)C (stereo not drawn) [Nex-53, Dodecyl 2-(dimethylamino)-3-methylbutanoate hydrochloride]
MIC ([2]; ATCC90029, Table 19 summary): > 12500 µg/mL
MIC [2, 10]: > 12500 µg/mL
MIC [2, 11]: > 12500 µg/mL
MIC [3, 12]: 6250 µg/mL
MIC [3, 13]: 6250 µg/mL
MIC [3, 14]: 6250 µg/mL
MIC ([4]; ATCC27853, Table 19 summary): 6250 µg/mL
MIC [4, 15]: 6250 µg/mL
MIC [4, 16]: 6250 µg/mL
MIC ([5]; CMCC98003): > 12500 µg/mL
MIC [5, 17]: > 12500 µg/mL
MIC Aspergillus niger [5]: >12500 µg/mL
MIC ([6]; ATCC29213, Table 19 summary): 6250 µg/mL
MIC [6, 18]: 6250 µg/mL
MIC [6, 19]: 6250 µg/mL
pH (pH (Table 1)): 1.69
Sol. [1]: 44%
Viable counts, Staphylococcus aureus time kill study ([7]; 0.5 min): 6.2 Log10 CFU/mL
Viable counts, Staphylococcus aureus time kill study ([7]; 1 min): 6.24 Log10 CFU/mL
Viable counts, Staphylococcus aureus time kill study ([7]; 5 min): 6.21 Log10 CFU/mL
Viable counts, Staphylococcus aureus time kill study ([7]; time 0): 6.35 Log10 CFU/mL
Viable counts, Escherichia coli time kill study ([8]; 0.5 min): 5.72 Log10 CFU/mL
Viable counts, Escherichia coli time kill study ([8]; 1 min): 5.71 Log10 CFU/mL
Viable counts, Escherichia coli time kill study ([8]; 5 min): <3.52 Log10 CFU/mL
Viable counts, Escherichia coli time kill study ([8]; time 0): 5.64 Log10 CFU/mL
Viable counts, Pseudomonas aeruginosa time kill study ([9]; 0.5 min): 5.54 Log10 CFU/mL
Viable counts, Pseudomonas aeruginosa time kill study ([9]; 1 min): 5.47 Log10 CFU/mL
Viable counts, Pseudomonas aeruginosa time kill study ([9]; 5 min): 5.49 Log10 CFU/mL
Viable counts, Pseudomonas aeruginosa time kill study ([9]; time 0): 5.54 Log10 CFU/mL

CCCCCCCCCCCCOC(=O)C(CC(C)C)N(C)C (stereo not drawn) [Nex-55, Dodecyl 2-(dimethylamino)-4-methylpentanoate hydrochloride]
MIC ([2]; ATCC90029, Table 19 summary): > 12500 µg/mL
MIC [2, 10]: > 12500 µg/mL
MIC [2, 11]: > 12500 µg/mL
MIC [3, 12]: 6250 µg/mL
MIC [3, 13]: 6250 µg/mL
MIC [3, 14]: 6250 µg/mL
MIC ([4]; ATCC27853, Table 19 summary): 6250 µg/mL
MIC [4, 15]: 6250 µg/mL
MIC [4, 16]: 6250 µg/mL
MIC ([5]; CMCC98003): > 12500 µg/mL
MIC [5, 17]: > 12500 µg/mL
MIC Aspergillus niger [5]: >12500 µg/mL
MIC ([6]; ATCC29213, Table 19 summary): 6250 µg/mL
MIC [6, 18]: 6250 µg/mL
MIC [6, 19]: 6250 µg/mL
pH (pH (Table 1)): 1.84
Sol. [1]: 50%
Viable counts, Staphylococcus aureus time kill study ([7]; 0.5 min): 6.22 Log10 CFU/mL
Viable counts, Staphylococcus aureus time kill study ([7]; 1 min): 6.21 Log10 CFU/mL
Viable counts, Staphylococcus aureus time kill study ([7]; 5 min): 6.18 Log10 CFU/mL
Viable counts, Staphylococcus aureus time kill study ([7]; time 0): 6.23 Log10 CFU/mL
Viable counts, Escherichia coli time kill study ([8]; 0.5 min): 5.71 Log10 CFU/mL
Viable counts, Escherichia coli time kill study ([8]; 1 min): 5.51 Log10 CFU/mL
Viable counts, Escherichia coli time kill study ([8]; 5 min): 4.6 Log10 CFU/mL
Viable counts, Escherichia coli time kill study ([8]; time 0): 5.68 Log10 CFU/mL
Viable counts, Pseudomonas aeruginosa time kill study ([9]; 0.5 min): 5.61 Log10 CFU/mL
Viable counts, Pseudomonas aeruginosa time kill study ([9]; 1 min): 5.58 Log10 CFU/mL
Viable counts, Pseudomonas aeruginosa time kill study ([9]; 5 min): 5.45 Log10 CFU/mL
Viable counts, Pseudomonas aeruginosa time kill study ([9]; time 0): 5.37 Log10 CFU/mL
